# What was measured:
# Format in all cases: in vivo
# [1] = tested on: Matricaria sp.; test: Field trial in winter oilseed rape, pre-emergence, % control and ground cover
# Method: (§1) Field trials were conducted on various moncotyledonous weeds and dicotyledonous weeds and the effect of D-isomer of Napropamide was studied to understand the selective and effective control of dicotyledonous weeds over monocotyledonous weeds. The effect of D-isomer of Napropamide in comparison to racemic napropramide and untreated was studied, which is concluded hereinbelow:
# (§2) Several small plot replicated trials were carried out to evaluate and/or compare the efficacy of D-Napropamide against a range of indicated annual broadleaved and grass weed species in the indicated crops. No problems were encountered during mixing or application of any of the product formulations or tank mixtures under test.
# (§3) In each of the reported data, the homogeneity of variance was tested by Bartlett's test. Wherever this test indicated no homogeneity of variance, the transformed values were used for analysis of variance. Assessment data was then analyzed using a two-way analysis of variance (ANOVA) on untransformed and transformed data. The probability of no significant differences occurring between treatment means was calculated as the F probability value (p(F)). A mean comparison test was only performed and reported when the treatment of F that was calculated during analysis of variance was significant at the observed significance level specified for the mean comparison test. Where the data was transformed, treatment means in the reports were presented in their detransformed state, with the appropriate letter test and mean descriptions (LSD and standard deviation) derived from the transformed ANOVA.
# Trials were conducted to evaluate the selectivity and efficacy of D-isomer of Napropamide when applied pre-emergence to oilseed rape crop. The % control of weed was assessed at regular intervals.
# [2] = tested on: Ranunculus repens; test: Field trial on strawberries, pre-emergence, visual % control
# Method: as §1, §2, §3
# Trial was carried out on strawberries to evaluate the efficacy and selectivity of D-Napropamide and equivalent rate of Devrinol (Napropramide) applied pre-emergence. […] The percentage control of D-isomer of Napropamide and Devrinol was assessed in comparison to the untreated after 224 days after application.
# [3] = tested on: Digitaria sanguinalis; test: Plot trial, % control of Digitaria sanguinalis
# Method: as §1, §2
# as §3, with “ANOVA. […]” for “ANOVA.”
# [4] = tested on: Senecio vulgaris; test: Field trial on strawberries, pre-emergence, visual % control
# Method: as §1, §2, §3
# Trial was carried out on strawberries to evaluate the efficacy and selectivity of D-Napropamide and equivalent rate of Devrinol (Napropramide) applied pre-emergence. […]
# [5] = tested on: Stellaria media; test: Pre-emergence glasshouse pot study, seedling emergence and growth (OECD guideline); conditions: for Mean Final Foliar Fresh Weights Expressed as Percentage of Untreated Controls / Mean Final Foliar Fresh Weights: Stellaria media; for Mean Final Foliar Fresh Weights: 21 days after 50% emergence, untreated 1.44
# Method: (§4) A study was carried out to determine the relative biological activity of the D and L isomers of Napropamide when applied pre-emergence to one monocotyledon and one dicotyledon species. Napropamide, containing 450 grammes active substance per liter (g a.s./L) formulated as a suspension concentrate and the D-isomer of Napropamide (1000 g a.s./L) were applied at a range of concentrations from 0.1575 to 1.26 kilograms of active substance per hectare (kg a.s/Ha).
# (§5) EC50 values in kg a.s./Ha were calculated from the dose response data using final foliar fresh weight data for each species and was used to determine the relative biological activity of the D and L isomers of Napropamide. The methodology was based on the OECD guideline […], according to the revision of July 2006 for seedling emergence and growth. The study was conducted to GLP standards.
# (§6) Seeds were sown directly into non-porous plastic pots containing the following mix of soil: 10 L of sterile loam+4 L of coarse grit (washed quartztite, nominal 4 mm)+10 L of sand. This soil mix was characterized as a sandy loam with an organic carbon content of 1.5% and pH of 7.2. Details of the plant species, number of seeds per pot and pot size are shown below. All seeds were sown 1-2 cm deep.
# (§7) The highest concentration of Napropamide was prepared by measuring a calculated volume by weight and diluting with tap water to the full required volume. Lower concentrations were prepared by serial dilution with water. D-Napropamide was prepared by dissolving the calculated weight in acetone and adding water to give the full required volume in 50:50 acetone+water. Lower concentrations were prepared by serial dilution with 50:50 acetone+water. D-Napropamide dissolved completely.
# (§8) The sprayer was calibrated within 24 hours prior to application by weight of 15 applications of water to six 86 mm ID petri dishes. The total weight of water over a known area enabled a simple calculation giving the volume rate to be made. The volume rate achieved was within the range specified in the study plan (200 L/Ha±10%).
# (§9) Replication was 5 pots per treatment for each plant species. After application, pots were placed on the bench in glasshouse in randomized blocks. Plants were assessed for emergence, mortality and visual injury (expressed as a percentage of the untreated control: 0%=no injury, 1-39%=slight injury, 40-69%=moderate injury, 70-99%=severe injury and 100%=all plants dead) at 14 and 21 days after 50% emergence in the untreated controls. Fresh weights (biomass above soil level) were also recorded 21 days after 50% emergence in the untreated controls. Plants were fully turgid at the time of harvest.
# (§10) Assessment data was recorded on pro-forma sheets and entered into Gylling ARM 7 software. EC50 values were calculated using audited means data from the final assessments (21 day). Gylling ARM 7.0 software used a simple probit—maximum likelihood estimation method with 99% confidence level. The EC50 values generated were then visually checked against the means data table to verify they appeared correct.
# [6] = tested on: Poa annua; test: as above; conditions: for Mean Final Foliar Fresh Weights Expressed as Percentage of Untreated Controls / Mean Final Foliar Fresh Weights: Poa annua; for Mean Final Foliar Fresh Weights: 21 days after 50% emergence, untreated 0.90
# Method: as §4, §5, §6, §7, §8, §9, §10
# [7] = 3.0 L/Ha of 450 g/L formulation
# [8] = 4.2 L/Ha of 450 g/L formulation
# [9] = 8.5 L/Ha of 450 g/L formulation
# [10] = rate 0.1575 kg/Ha pre-emergence
# [11] = dicotyledonous weeds (Stellaria media EC50)
# [12] = monocotyledonous weeds (Poa annua EC50)
compound,measurement,setting,value
"CCN(CC)C(=O)[C@@H](C)Oc1cccc2ccccc12 [D-Napropamide, D-(−)-N,N-diethyl-2-(α-naphthoxy)propionamide]","Percentage ground cover %, value in brackets (untreated 0.0%)",[1]; 450 g/L @ 2.0 L/Ha,(99.3%)
same,Percentage Control at 49 DAA,"[1]; 450 g/L @ 2.0 L/Ha, oilseed rape",97.00%
same,Percentage ground cover %,"[1]; 450 g/L @ 2.0 L/Ha, untreated 4.50",0.30%
same,Conclusion: efficacy in control vis-à-vis Napropamide at an equivalent dosage,"[1]; Matricaria sp., dicot, oilseed rape",superior efficacy
same,Percentage Control at 224 DAA,[2]; [7],66.7%
same,Percentage Control at 224 DAA,[2]; [8],100%
same,Percentage Control at 224 DAA,[2]; [9],100%
same,Conclusion: efficacy in control vis-à-vis Napropamide at an equivalent dosage,[2]; Ranunculus repens,surprising efficacy
same,% Control,"[3]; 3 L/Ha of 450 g/L formulation, 16 DAA",7.50%
same,% Control,"[3]; 3 L/Ha of 450 g/L formulation, 33 DAA",8.75%
same,% Control,"[3]; 4.5 L/Ha of 450 g/L formulation, 16 DAA",10.00%
same,% Control,"[3]; 4.5 L/Ha of 450 g/L formulation, 33 DAA",10.00%
same,% Control,"[3]; 6 L/Ha of 450 g/L formulation, 16 DAA",10.00%
same,% Control,"[3]; 6 L/Ha of 450 g/L formulation, 33 DAA",12.50%
same,% Control,"[3]; 7.5 L/Ha of 450 g/L formulation, 16 DAA",10.00%
same,% Control,"[3]; 7.5 L/Ha of 450 g/L formulation, 33 DAA",11.25%
same,% Control,"[3]; 9 L/Ha of 450 g/L formulation, 16 DAA",10.00%
same,% Control,"[3]; 9 L/Ha of 450 g/L formulation, 33 DAA",18.75%
same,Conclusion: efficacy in comparison to Napropamide in the control of monocotyledonous weeds,[3]; Digitaria sanguinalis,only as efficacious or less
same,Percentage Control at 70 DAA,[4]; [7],75.0%
same,Percentage Control at 70 DAA,[4]; [8],50.0%
same,Percentage Control at 70 DAA,[4]; [9],75.0%
same,Conclusion: efficacy in control vis-à-vis Napropamide at an equivalent dosage,[4]; Senecio vulgaris,surprising efficacy
same,EC50 based on the final fresh weights,"[5]; Stellaria media (dicot), 21 day assessment, probit",0.054 kg/Ha
same,Mean Final Foliar Fresh Weights Expressed as Percentage of Untreated Controls,[5]; rate 0.1575 kg/Ha,35%
same,Mean Final Foliar Fresh Weights,[5]; [10],0.498 g
same,Mean Final Foliar Fresh Weights Expressed as Percentage of Untreated Controls,[5]; rate 0.315 kg/Ha,14%
same,Mean Final Foliar Fresh Weights,[5]; rate 0.315 kg/Ha pre-emergence,0.198 g
same,Mean Final Foliar Fresh Weights Expressed as Percentage of Untreated Controls,[5]; rate 0.630 kg/Ha,12%
same,Mean Final Foliar Fresh Weights,[5]; rate 0.63 kg/Ha pre-emergence,0.17 g
same,times more active than L-Napropamide,[5]; [11],~23.33 times
same,times more active than racemic Napropamide,[5]; [11],about 4.07 times
same,EC50 based on the final fresh weights,"[6]; Poa annua (monocot), 21 day assessment, probit",0.44 kg/Ha
same,Mean Final Foliar Fresh Weights Expressed as Percentage of Untreated Controls,[6]; rate 0.1575 kg/Ha,100%
same,Mean Final Foliar Fresh Weights,[6]; [10],0.93 g
same,Mean Final Foliar Fresh Weights Expressed as Percentage of Untreated Controls,[6]; rate 0.315 kg/Ha,71%
same,Mean Final Foliar Fresh Weights,[6]; rate 0.315 kg/Ha pre-emergence,0.64 g
same,Mean Final Foliar Fresh Weights Expressed as Percentage of Untreated Controls,[6]; rate 0.630 kg/Ha,50%
same,Mean Final Foliar Fresh Weights,[6]; rate 0.63 kg/Ha pre-emergence,0.45 g
same,more active than L-Napropamide,[6]; [12],~2.86 times
same,times more active than racemic Napropamide,[6]; [12],about 1.63 times
